# From PMC5479350 (Journal of virological methods, 2017)
# Several values for one entry are separate records, joined by “and”; a condition that tells them apart may be missing. Identical values can stand only once. Like-named read-outs stand apart in the source and are kept apart here.
# Experiments:
# [1] = tested on: Chikungunya virus (S27 strain); test: microbe, parasite or virus in culture; type: cell-based; settings: for EC50: Chikungunya virus, Vero 76, read-out: EC50 (mean 50% effective, virus-inhibitory concentration ± SD)
# [2] = tested on: Dengue virus Type 2 (New Guinea C strain); test: microbe, parasite or virus in culture; type: cell-based; settings: for EC50: Dengue virus, Vero 76, read-out: EC50 (mean 50% effective, virus-inhibitory concentration ± SD)
# [3] = tested on: proliferating, uninfected Vero 76 cells
# [4] = tested on: Junin virus (Candid #1 strain); type: cell-based
# [5] = in vitro; settings: African green monkey
Structure (SMILES),EC50 [1],Inhibition of dengue virus (in words) [2],"SI (Selectivity Index, CC50/EC50) [2]",EC50 [2],Inhibition of chikungunya virus (in words) [1],"SI (Selectivity Index, CC50/EC50) [1]","Mean 50% cytotoxic concentration ± SD, ALB-Abs ([3]; 4 days, N=3)","Mean 50% cytotoxic concentration ± SD, ALB-Fluor ([3]; 4 days, N=3)","Mean 50% cytotoxic concentration ± SD, Neutral Red ([3]; 4 days, N=3)","Mean 50% cytotoxic concentration ± SD, Viral ToxGlo ([3]; 4 days, N=3)","Mean 50% cytotoxic concentration ± SD, WST-1 ([3]; 4 days, N=3)",Inhibition of Junin virus (in words) [4],"SI (Selectivity Index, CC50/EC50) [4]","CC50 ([5]; CC50, range over the dyes)","Mean 50% cytotoxic concentration ± SD, Neutral Red ([3]; African green monkey)","Mean 50% cytotoxic concentration ± SD, Viral ToxGlo ([3]; African green monkey)",CC50 ([5]; CC50 with ALB-F),CC50 ([5]; CC50 with all other dyes including ALB-A),CC50 ([5]; CC50 (toxicity) with ALB-A and ALB-F),"CC50 ([5]; CC50 (toxicity) with NR, VTG, and WST-1)"
Nc1ncnc2c([C@@H]3N[C@H](CO)[C@@H](O)[C@H]3O)c[nH]c12 [BCX4430],> 100 µM,weak dengue-inhibitory activity,>3,37 ± 22 µM,–,–,–,–,–,–,–,–,–,–,–,–,–,–,–,–
"COc1c(C)c2c(c(O)c1C/C=C(\C)CCC(=O)O)C(=O)OC2 [Mycophenolic acid, mycophenolic acid]",1.6 ± 1.7 µM,–,>22,4.5 ± 6.6 µM,inhibited,>61,1.4 ± 0.3 µM and 1.2 ± 0.2 µM,1.9 ± 0.1 µM and 2.5 ± 0.5 µM,0.8 ± 0.6 µM,0.7 ± 0.2 µM,0.5 ± 0.1 µM,inhibited,>100,0.8 to 2.5 µM,–,–,–,–,–,–
"C#Cc1c(C(N)=O)ncn1[C@@H]1O[C@H](CO)[C@@H](O)[C@H]1O [EICAR, 5-ethynyl-1-beta-D-ribofuranosylimidazole-4-carboxamide]",10.3 ± 13 µM,–,>8,13.3 ± 22.1 µM,inhibited,>10,4.9 ± 1.4 µM and 3.9 ± 1.3 µM,9.5 ± 4.2 µM and 8.2 ± 2.2 µM,2.9 ± 1.0 µM,2.7 ± 1.4 µM,2.8 ± 1.1 µM and 3.9 ± 1.3 µM,inhibited,>52,1.5 to 8.9 µM,–,–,–,–,–,–
NC(=O)c1nc(F)c[nH]c1=O [Favipiravir],> 100 µM,–,–,> 100 µM,–,–,–,–,–,–,–,inhibited,>23,–,–,–,–,–,–,–
"NC(=O)c1ncn([C@@H]2O[C@H](CO)[C@@H](O)[C@H]2O)n1 [Ribavirin, 1-beta-D-ribofuranosyl-1,2,4-triazole-3-carboxamide]",> 100 µM,–,–,> 100 µM,–,–,–,–,–,–,–,inhibited,>7,–,–,–,–,–,–,–
NC(=O)c1csc([C@@H]2O[C@H](CO)[C@@H](O)[C@H]2O)n1 [Tiazofurin],> 100 µM,ineffective,–,> 100 µM,ineffective,–,–,–,–,–,–,ineffective,–,–,–,–,–,–,–,–
Nc1cc2nc[nH]c2c(=O)[nH]1 [3-Deazaguanine],13 ± 8.3 µM,–,>22,4.6 ± 6.3 µM,inhibited,>8,–,–,–,–,–,inhibited,>63,–,3.0 ± 1.1 µM,1.5 ± 0.7 µM,83 to 93 µM,2.4 to 7 µM,–,–
O=c1cnn([C@@H]2O[C@H](CO)[C@@H](O)[C@H]2O)c(=O)[nH]1 [6-Azauridine],8 ± 10.4 µM,–,>12,8.4 ± 10.8 µM,inhibited,>13,48.0 ± 11.5 µM and 48.0 ± 19.9 µM,"69.0 ± 10.5 μM and 94.0 ± 10.4 ^*^, ^φ μM",6.2 ± 0.9 µM,17.0 ± 5.3 µM,6.2 ± 1.0 μM and 7.1 ± 1.8 ^b μM,inhibited,>151,–,–,–,–,–,48 to 92 µM,6.1 to 17.5 µM
